# Laboratory results: paper PMC6933707, “Palmitoylethanolamide counteracts substance P-induced mast cell activation in vitro by stimulating diacylglycerol lipase activity” (Journal of Neuroinflammation, 2019)
# Several values for one entry are separate records, joined by “and”; a condition that tells them apart may be missing. Identical values can stand only once.
# How the values were obtained:
# RBL-2H3 cells [1] = assay: Histamine release assay (ELISA); assay type: cell-based, rat
# Description: RBL-2H3 cells were plated into 24-well culture dishes at a cell density of 2 × 10^5 cells per well, or into 6-well culture dishes at a cell density of 9 × 10^5 cells per well, for 1 day at 37 °C in 5% CO2 atmosphere. After 1 day, RBL-2H3 cells were stimulated with SP (10 μM) or vehicle (water) and incubated for 15 min at 37 °C in 5% CO2 atmosphere.
# SP-stimulated RBL-2H3 cells (2 × 10^5 cells/well) were treated with PEA (10 μM) or vehicle (methanol) for 15 min at 37 °C in 5% CO2 atmosphere. SP-stimulated RBL-2H3 cells were also treated with a CB2 antagonist, AM630 (0.1 μM), in the presence and absence of PEA (10 μM), or JWH133 (0.1 μM) (a CB2 synthetic agonist), and incubated for the indicated time. SP-stimulated RBL-2H3 cells were also treated with 2-AG (0.1 and 1 μM), or co-treated with PEA (0.1 μM) and 2-AG (0.1 μM), and incubated for the indicated time. SP-stimulated RBL-2H3 cells were also co-treated with PEA (10 μM) and OMDM188 (10 μM) (a DAGL inhibitor), and incubated for the indicated time. After 15 min, the supernatants were collected and the amounts of secreted histamine were measured by using a histamine ELISA kit according to the manufacturer’s instructions (Abnova) and by using a reader GENios Pro (Tecan). Data were expressed as nanograms per milliliter of histamine.
# RBL-2H3 cells [2] = assay: LC-APCI-MS measurement of endogenous AEA, 2-AG and PEA levels; assay type: cell-based, rat; conditions: for increase of endogenous levels of 2-AG: 15 min
# Description: RBL-2H3 cells (9 × 10^5 cells/well) were stimulated with SP (10 μM) and treated with PEA (10 μM) in the presence and absence of OMDM188 (10 μM), for 15 min at 37 °C in 5% CO2 atmosphere. After 15 min, cells and supernatants were collected and homogenized in a solution of CHCl3/CH3OH/Tris-HCl 50 mM pH 7.4 (2:1:1, v/v) containing 10 pmol of [^2H]8-AEA, [^2H]5-2-AG and [^2H]4-PEA as internal standards. The lipid-containing organic phase was dried down, weighed and pre-purified by open-bed chromatography on silica gel. Fractions obtained by eluting the column with a solution of CHCl3/CH3OH (90:10 by vol.) were analyzed by Liquid Chromatography-Atmospheric Pressure Chemical Ionization-Mass Spectrometry (LC-APCI-MS) using a Shimadzu (Shimadzu, Kyoto, Japan) HPLC apparatus (LC-10ADVP) coupled to a Shimadzu (LCMS-2020) quadrupole MS via a Shimadzu APCI interface. LC-APCI-MS analyses of 2-AG and PEA were carried out in the selected ion monitoring mode, using m/z values of 356 and 348 (molecular ions + 1 for deuterated and undeuterated AEA), 384.35 and 379.35 (molecular ions + 1 for deuterated and undeuterated 2-AG), and 304 and 300 (molecular ions + 1 for deuterated and undeuterated PEA). AEA, 2-AG and PEA levels were calculated on the basis of their area ratio with the internal deuterated standard signal areas, and their amounts (pmol) were normalized per mg of lipid extract.
# DAGL-β = target: T1, DAGL-β (Rattus norvegicus, UniProt P0C1S9); assay: DAGL-β enzyme activity assay (RBL-2H3 cell membranes); assay type: biochemical; conditions: 25 μM
# T1 construct: constitutive DAGL-β activity in RBL-2H3 cell membranes; endogenous in cells; host or cells: RBL-2H3
# T1 sequence (P0C1S9 1-668): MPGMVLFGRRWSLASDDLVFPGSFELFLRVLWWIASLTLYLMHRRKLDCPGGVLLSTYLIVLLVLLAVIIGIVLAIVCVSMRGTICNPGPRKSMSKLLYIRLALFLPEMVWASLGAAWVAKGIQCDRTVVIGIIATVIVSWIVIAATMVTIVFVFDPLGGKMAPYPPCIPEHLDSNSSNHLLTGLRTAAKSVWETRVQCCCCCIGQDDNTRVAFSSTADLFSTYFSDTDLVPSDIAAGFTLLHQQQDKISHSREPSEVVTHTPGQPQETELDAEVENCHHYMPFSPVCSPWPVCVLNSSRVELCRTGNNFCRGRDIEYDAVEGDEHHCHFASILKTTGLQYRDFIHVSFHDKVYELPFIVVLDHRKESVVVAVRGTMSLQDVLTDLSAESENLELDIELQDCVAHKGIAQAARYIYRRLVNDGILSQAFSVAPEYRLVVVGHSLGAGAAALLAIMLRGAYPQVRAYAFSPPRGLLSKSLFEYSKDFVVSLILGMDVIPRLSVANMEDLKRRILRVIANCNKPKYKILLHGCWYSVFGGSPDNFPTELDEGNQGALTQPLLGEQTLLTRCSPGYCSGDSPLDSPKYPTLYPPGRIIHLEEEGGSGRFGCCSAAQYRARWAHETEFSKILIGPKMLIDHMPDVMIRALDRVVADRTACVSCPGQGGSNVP
# Description: DAGL-β enzyme activity was assessed by using membrane preparations (100 μg of protein) obtained from RBL-2H3 cells, and 1-[^14C]oleoyl-2-arachidonoylglycerol (1.0 mCi/mmol, 50 μM, [40, 41]), as substrate in the presence of vehicle or increasing concentrations of PEA (1–25 μM) in Tris-HCl 50 mM pH 7.4 or in Tris-HCl 50 mM pH 7.4 and CaCl2 10 mM. After the incubation (20 min at 37 °C), the protocol followed the same procedures as above reported for DAGL-α enzyme activity assay. Data were expressed as % of activity of DAGL-β.
smiles,measurement,setting,value
"CCCCCCCCCCCCCCCC(=O)NCCO [PEA, Palmitoylethanolamide]",histamine release,"RBL-2H3 cells [1]; SP (10 μM)-stimulated cells, compound 0.1 μM, 15 min, vs SP + vehicle",comparable
same,histamine release,"RBL-2H3 cells [1]; SP (10 μM)-stimulated cells, compound 10 μM, 15 min, vs SP + vehicle",inhibited the release of histamine
same,histamine release,"RBL-2H3 cells [1]; SP-stimulated cells co-treated with PEA 0.1 μM and 2-AG 0.1 μM, 15 min",able to reduce
same,histamine release,"RBL-2H3 cells [1]; SP-stimulated cells co-treated with PEA 10 μM and AM630 0.1 μM, vs SP + vehicle or SP + AM630",comparable
same,histamine release,"RBL-2H3 cells [1]; substance alone 10 μM, 15 min, vs vehicle-treated cells",No effect
same,increase of endogenous levels of 2-AG,"RBL-2H3 cells [2]; PEA 10 μM alone, in the absence of SP, compared to vehicle-treated cells",1.8 fold and ~ 2 fold
same,estimated increase of 2-AG concentration in cells,RBL-2H3 cells [2]; SP-stimulated cells treated with PEA 10 μM vs unstimulated cells,0.5 µM
same,increase of endogenous levels of 2-AG,"RBL-2H3 cells [2]; SP-stimulated cells treated with PEA 10 μM, compared to SP-stimulated cells treated with PEA vehicle",1.6 fold and ~ 2 fold
same,increase of endogenous levels of 2-AG,"RBL-2H3 cells [2]; SP-stimulated cells treated with PEA 10 μM, compared to cells only treated with vehicle",1.4 fold
same,endogenous levels of AEA,"RBL-2H3 cells [2]; SP-stimulated cells treated with PEA 10 μM, vs SP + PEA vehicle",no statistically significant increase
same,estimated concentration of 2-AG in cells,"RBL-2H3 cells [2]; SP-stimulated cells treated with PEA 10 μM, estimated from 1 mg lipids per 10 mg (10 μl) cell pellet, 0.7 μM in unstimulated cells",about 1.2 μM
same,increase of levels of AEA,RBL-2H3 cells [2]; unstimulated cells following PEA treatment (discussion),~ 2 fold
same,endogenous levels of AEA,"RBL-2H3 cells [2]; unstimulated cells treated with PEA alone 10 μM, vs vehicle",statistically significant increase
same,stimulation of the activity of DAGL-β,DAGL-β,33 ± 5.43%
